From patent US20100261753A1, “METHODS FOR PREVENTING AND/OR TREATING DEGENERATIVE DISORDERS OF THE CENTRAL NERVOUS SYSTEM” (AMICUS THERAPEUTICS, INC., priority 2009, published 2010) come the findings set out here.

Structures can show the parent of a compound that is named as a salt.

Data set [1] can be described thus: Compound concentration in brain, spleen and plasma samples of the GCase enhancement study. The class given is in vivo, mice (C57BL/6). The following applies: male, C57BL/6, mouse, po, nine doses, 24-hour washout. The protocol: The ability of orally administered test compounds (the hydrochloride salt form of Compound A and Compound B) to elevate GCase levels as compared to reference compound, IFG-tartrate, was assessed in mice. […] Seven animals were used per dose. The dosing solutions were prepared in water. Compounds were administered over 2 weeks as follows: week 1, Mon-Fri (On), Sat-Sun (Off); week 2, Mon-Thu (On); necropsy on Friday. Thus, a total of 9 doses (dosing solutions prepared fresh every day) were given to each mouse, with a 24-hour washout between the last dose and necropsy.
Plasma was collected by spinning blood at 2700 g for 10 minutes at 4° C. Liver, spleen, lung, and brain tissues were removed, washed in cold PBS, blotted dry, flash frozen on dry ice, and stored at −80° C. until analysis. GCase levels were measured by homogenizing approximately 50 mg tissue in 500 μl McIlvane (MI) buffer (100 mM sodium citrate, 200 mM sodium phosphate dibasic, 0.25% sodium taurocholate, and 0.1% Triton X-100, pH 5.2) at pH 5.2 for 3-5 seconds on ice with a micro homogenizer. Homogenates were then incubated at room temperature without and with 2.5 mM conduritol-B-epoxide (CBE) for 30 min. Finally, 3.7 mM 4-methylumbeliferryl-β-glucoside (4-MUG) substrate was added and incubated at 37° C. for 60 min. Reactions were stopped by addition of 0.4 M glycine, pH 10.6. Fluorescence was measured on a plate reader for 1 sec/well using 355 nm excitation and 460 nm emission. Total protein was determined in lysates using the MicroBCA kit according to the manufacturer's instructions. A 4-methylumbelliferone (4-MU) standard curve ranging from 1.0 nM to 50 μM was run in parallel for conversion of raw fluorescence data to absolute GCase activity (in the presence and absence of CBE) and expressed as nanomoles of 4-MU released per milligram of protein per hour (nmol/mg protein/hr). GCase levels and protein levels were calculated using Microsoft Excel (Redmond, Wash.) and GraphPad Prism version 4.02.

For the next data set, the target named is T1, GCase (Homo sapiens, UniProt P04062).
T1 sequence (P04062 40-536): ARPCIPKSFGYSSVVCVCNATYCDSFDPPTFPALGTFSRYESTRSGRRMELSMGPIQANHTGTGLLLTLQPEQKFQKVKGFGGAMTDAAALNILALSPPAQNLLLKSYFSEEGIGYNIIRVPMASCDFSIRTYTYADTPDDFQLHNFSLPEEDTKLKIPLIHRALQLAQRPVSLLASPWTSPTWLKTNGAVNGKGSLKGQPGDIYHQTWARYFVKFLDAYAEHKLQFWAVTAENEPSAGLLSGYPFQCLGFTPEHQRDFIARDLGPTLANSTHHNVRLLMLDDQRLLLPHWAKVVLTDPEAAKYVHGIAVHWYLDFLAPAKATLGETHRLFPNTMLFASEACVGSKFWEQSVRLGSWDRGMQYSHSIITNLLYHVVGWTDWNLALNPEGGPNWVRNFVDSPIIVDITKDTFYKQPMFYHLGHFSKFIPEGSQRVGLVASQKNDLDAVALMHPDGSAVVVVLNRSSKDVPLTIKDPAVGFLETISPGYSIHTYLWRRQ
As to the kind of experiment: GCase activity enhancement (EC50, Emax; Table 2B). The class given is cell-based.

Consider `Cl.O[C@@H]1[C@@H](CF)CNC[C@H]1O` [Compound A-HCl, (3R,4R,5R)-5-(fluoromethyl)piperidine-3,4-diol hydrochloride], for which the melting point is 200 to 202 °C.

`OC[C@H]1CNC[C@@H](O)[C@@H]1O` [IFG, (3R,4R,5R)-5-(hydroxymethyl)-3,4-piperidinediol, reference compound]: the concentration at 24 h in data set [1] (brain, 10 mg/kg, 10 mg/kg p.o., Table 4A) worked out at 49 ± 2.4 nM; in data set [1] (brain, 100 mg/kg, 100 mg/kg p.o., Table 3A), 182 ± 13 nM; in data set [1] (brain, 100 mg/kg, 100 mg/kg p.o., Table 4A), 287 ± 74 nM; in data set [1] (plasma, 10 mg/kg, 10 mg/kg p.o., Table 4C) it was 67 ± 10 nM; in data set [1] (plasma, 100 mg/kg, 100 mg/kg p.o., Table 3C), 330 ± 36 nM; in data set [1] (plasma, 100 mg/kg, 100 mg/kg p.o., Table 4C), 852 ± 134 nM. The concentration at 24 h is 150 ± 12 nM in data set [1] (spleen, 10 mg/kg, 10 mg/kg p.o., Table 4B); 711 ± 100 nM in data set [1] (spleen, 100 mg/kg, 100 mg/kg p.o., Table 3B); 1140 ± 220 nM in data set [1] (spleen, 100 mg/kg, 100 mg/kg p.o., Table 4B).

On to `OC[C@H]1CNC[C@@H](O)[C@@H]1O` [IFG-Tartrate, Isofagomine tartrate, reference compound], for which the Emax at GCase was 93.6 ± 2.5%.

As usually defined, the melting point is the temperature of the solid-liquid transition. As usually defined, the Emax is the greatest response seen or fitted, relative to the assay's reference.
